Like-named read-outs stand apart in the source and are kept apart here.
Experiments:
Type in all cases: cell-based, human
[1] = tested on: DU145 prostate cancer cells; assay: Cell survival assay (SRB); conditions: for IC50: DU145 (prostate), read-out: Cytoselectivities (nM) DU145
Procedure: (§1) Cell Lines and Culture Medium. All cell lines used in this study have been described previously (Parsons et al., 1986; Todaro et al., 1980; Glenn et al., 2004). All cell lines were cultured in 10% heat-inactivated foetal calf serum (CSL, Australia) in RPMI 1640 medium supplemented with 100 U/mL penicillin, 100 μg/mL streptomycin, and 3 mM HEPES at 5% CO2, 99% humidity at 37° C. Primary human fibroblasts were obtained from neonatal foreskins and cultured in the above medium. Routine mycoplasma tests were performed using Hoechst stain^i and were always negative.
(§2) Cell Survival Assay. Cells were plated into 96-well microtitre plates at 5×10^3 cells/well, and allowed to adhere overnight. Test compounds were added to culture medium at the indicated concentrations, and plates incubated in the above conditions for 24 hours. Following this incubation period, compounds and media were removed, and replaced with fresh culture medium. Cells were then grown for a further 72 hours before assay using sulforhodamine B (SRB; Sigma, St. Louis, Mo.) as previously described. Briefly, the culture medium was removed from the 96-well microtitre plates and the plates washed twice with phosphate buffered saline (PBS), before the cells were fixed with methylated spirits for 15 minutes. The plates were then rinsed with tap water and the fixed cells stained with 50 μL/well of SRB solution (0.4% sulforhodamine B (w/v) in 1% (v/v) acetic acid) over a period of 1 hour. The SRB solution was then removed from the wells and the plates rapidly washed two times with 1% (v/v) acetic acid. Protein bound dye was then solubilised with the addition of 100 μL of 10 mM unbuffered Tris, and incubated for 15 min at 25° C. Plates were then read at 564 nm on a VERSA max tunable microplate reader (Molecular Devices, Sunnyvale, Calif.).
(§3) For comparison their results are also shown for MM96L and NFF cell lines.

SkMel28 melanoma cells = assay: Cell survival assay (SRB); conditions: for IC50: SK-MEL-28 (melanoma), read-out: Cytoselectivities (nM) SK-MEL-28
Procedure: as §1, §2, §3

JAM ovarian cancer cells = assay: Cell survival assay (SRB); conditions: for IC50: read-out: Cytoselectivities (nM) JAM
Procedure: as §1, §2, §3

[2] = tested on: MCF-7 breast cancer cells; assay: Cell survival assay (SRB); conditions: for IC50: MCF-7 (breast), read-out: Cytoselectivities (nM) MCF-7
Procedure: as §1, §2, §3

[3] = tested on: CI-80-13S ovarian cancer cells; assay: Cell survival assay (SRB); conditions: for IC50: read-out: Cytoselectivities (nM) CI80-13S
Procedure: as §1, §2, §3

MM96L melanoma cells = assay: Cell survival assay (clonogenic survival, SRB); conditions: for Selectivity: Selectivity Index = IC50 (NFF)/IC50 (MM96L)
How it was run: (§4)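 Cells (5×10^3/well, RPMI 1640 with 10% FCS) treated 24 h with compound at 0.01-10 μg/mL, then washed and grown 72 h drug-free at 37 °C, 5% CO2. Survival read by SRB staining after methylated-spirit fixation, absorbance 564 nm.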

H520 cells = assay: Cell survival assay (SRB); conditions: for IC50: read-out: Cytoselectivities (nM) H520
Procedure: as §1, §2

PC-3 cells = assay: Cell survival assay (SRB); conditions: for IC50: PC-3, read-out: Cytoselectivities (nM) PC-3
Procedure: as §1, §2

T-47D cells = assay: Cell survival assay (SRB); conditions: for IC50: read-out: Cytoselectivities (nM) T-47D
Procedure: as §1, §2

SK-MEL-5 cells = assay: Cell survival assay (SRB); conditions: for IC50: SK-MEL-5, read-out: Cytoselectivities (nM) SK-MEL-5
Procedure: as §1, §2

HOP62 cells = assay: Cell survival assay (SRB); conditions: for IC50: HOP62 (lung), read-out: Cytoselectivities (nM) HOP62
Procedure: as §1, §2

A549 cells = assay: Cell survival assay (SRB); conditions: for IC50: A549 (lung), read-out: Cytoselectivities (nM) A549
Procedure: as §1, §2

Col208 cells = assay: Cell survival assay (SRB)
Procedure: as §1, §2

HT29 cells = assay: Cell survival assay (SRB); conditions: for IC50: HT29 (colon), read-out: Cytoselectivities (nM) HT29
Procedure: as §1, §2

[4] = tested on: NFF, neonatal foreskin fibroblasts; assay: Cell survival assay (clonogenic survival, SRB), normal cells; conditions: SRB
How it was run: as §4

[5] = Table 13, S enantiomer, IC50(NFF)/IC50(cancer cell line)
[6] = MM96L, Table 12, read-out: Cytoselectivities (nM) MM96L
[7] = Table 5, 24 hours with compound, further growth, SRB, read-out: IC50 MM96L
[8] = Table 5, 24 hours with compound, further growth, read-out: IC50 NFF

O=C(CCCCC[C@H](NC(=O)c1ccc(Br)cc1)C(=O)Nc1ccc(-c2ccccc2)cc1)NO [Example 161]
IC50 ([1]; Homo sapiens, DU-145): 149 nM | Selectivity Index DU145 [1, 5]: 1.2 | IC50 (SkMel28 melanoma cells; Homo sapiens): 168 nM | Selectivity Index SK-MEL-28 (SkMel28 melanoma cells; [5]): 1.1 | IC50 (JAM ovarian cancer cells; Homo sapiens): 182 nM | Selectivity Index JAM (JAM ovarian cancer cells; [5]): 1.0 | IC50 ([2]; Homo sapiens, MCF7): 149 nM | Selectivity Index MCF-7 [2, 5]: 1.2 | IC50 ([3]; Homo sapiens): 158 nM | Selectivity Index CI80-13S [3, 5]: 1.2 | IC50 (MM96L melanoma cells; Homo sapiens, MM96L, MM96L melanoma, 24 h with compound, further 72 h growth, SRB, read-out: IC50 (uM) MM96L): 0.074 µM | IC50 (MM96L melanoma cells; Homo sapiens, MM96L, Table 12, read-out: Cytoselectivities (nM) MM96L): 0.121 µM | SI (Selectivity Index = IC50 (NFF)/IC50 (MM96L)) (MM96L melanoma cells; NFF vs MM96L): 2.5 | Selectivity Index MM96L (MM96L melanoma cells; [5]): 1.5 | IC50 (H520 cells; Homo sapiens, NCI-H520): 117 nM | Selectivity Index H520 (H520 cells; [5]): 1.6 | IC50 (PC-3 cells; Homo sapiens): 531 nM | Selectivity Index PC-3 (PC-3 cells; [5]): 0.3 | IC50 (T-47D cells; Homo sapiens, T47D): 197 nM | Selectivity Index T-47D (T-47D cells; [5]): 0.9 | IC50 (SK-MEL-5 cells; Homo sapiens): 102 nM | Selectivity Index SK-MEL-5 (SK-MEL-5 cells; [5]): 1.8 | IC50 (HOP62 cells; Homo sapiens, HOP-62): 261 nM | Selectivity Index HOP62 (HOP62 cells; [5]): 0.7 | IC50 (A549 cells; Homo sapiens): 335 nM | Selectivity Index A549 (A549 cells; [5]): 0.6 | IC50 (Col208 cells; Homo sapiens, Col208 (colon), read-out: Cytoselectivities (nM) Col208): 272 nM | Selectivity Index Col208 (Col208 cells; [5]): 0.6 | IC50 (HT29 cells; Homo sapiens, HT-29): 307 nM | Selectivity Index HT29 (HT29 cells; [5]): 0.6 | IC50 ([4]; Homo sapiens, Fibroblast, NFF normal fibroblasts, 24 h with compound, further 72 h growth, read-out: IC50 (uM) NFF): 0.185 µM

O=C(/C=C/c1ccccc1)N[C@H](CCCCCC(=O)NO)C(=O)Nc1cccc2cccnc12 [146 R]
IC50 [1]: 63 nM | IC50 (SkMel28 melanoma cells): 87 nM | IC50 (JAM ovarian cancer cells; JAM): 163 nM | IC50 [2]: 51 nM | IC50 ([3]; CI80-13S): 91 nM | IC50 (MM96L melanoma cells; [6]): 0.045 µM | IC50 (H520 cells; H520): 152 nM | IC50 (PC-3 cells): 543 nM | IC50 (T-47D cells; T-47D): 99 nM | IC50 (SK-MEL-5 cells): 66 nM | IC50 (HOP62 cells): 133 nM | IC50 (A549 cells): 196 nM | IC50 (HT29 cells): 272 nM

O=C(CCCCC[C@@H](NC(=O)OCc1ccccc1)C(=O)Nc1cccc2cccnc12)NO [148 R]
IC50 [1]: 39 nM | IC50 (SkMel28 melanoma cells): 43 nM | IC50 (JAM ovarian cancer cells; JAM): 65 nM | IC50 [2]: 29 nM | IC50 ([3]; CI80-13S): 29 nM | IC50 (MM96L melanoma cells; [6]): 0.022 µM | IC50 (H520 cells; H520): 46 nM | IC50 (PC-3 cells): 269 nM | IC50 (T-47D cells; T-47D): 51 nM | IC50 (SK-MEL-5 cells): 20 nM | IC50 (HOP62 cells): 65 nM | IC50 (A549 cells): 104 nM | IC50 (HT29 cells): 139 nM

O=C(CCCCC[C@@H](NC(=O)c1cc2ccccc2[nH]1)C(=O)Nc1cccc2cccnc12)NO [132 R]
IC50 [1]: 33 nM | IC50 (SkMel28 melanoma cells): 43 nM | IC50 (JAM ovarian cancer cells; JAM): 211 nM | IC50 [2]: 42 nM | IC50 ([3]; CI80-13S): 27 nM | IC50 (MM96L melanoma cells; [6]): 0.018 µM | IC50 (H520 cells; H520): 180 nM | IC50 (PC-3 cells): 148 nM | IC50 (T-47D cells; T-47D): 42 nM | IC50 (SK-MEL-5 cells): 23 nM | IC50 (HOP62 cells): 63 nM | IC50 (A549 cells): 121 nM | IC50 (HT29 cells): 238 nM

O=C(CCCSC[C@H](NC(=O)CCc1ccccc1)C(=O)NCc1ccccc1)NO [Example 46]
IC50 (MM96L melanoma cells; [7]): 7.4 ± 0.5 µM | Selectivity (MM96L melanoma cells; Table 5): 2.9 | IC50 [4, 8]: 21 ± 3 µM

O=C(CCCSC[C@H](NC(=O)C1CC1)C(=O)NCc1ccccc1)NO [Example 55]
IC50 (MM96L melanoma cells; [7]): 21 ± 2 µM | Selectivity (MM96L melanoma cells; Table 5): >5 | IC50 [4, 8]: > 100 µM

O=C(CCCCC[C@@H](NC(=O)c1ccc(Br)cc1)C(=O)Nc1ccc(-c2ccccc2)cc1)NO [161 R]
IC50 [1]: 18600 nM | IC50 (SkMel28 melanoma cells): 18600 nM | IC50 (JAM ovarian cancer cells; JAM): 18600 nM | IC50 [2]: 13000 nM | IC50 ([3]; CI80-13S): 18600 nM | IC50 (MM96L melanoma cells; [6]): 18.6 µM | IC50 (H520 cells; H520): 18600 nM | IC50 (PC-3 cells): 18600 nM | IC50 (T-47D cells; T-47D): 18600 nM | IC50 (SK-MEL-5 cells): 18600 nM | IC50 (HOP62 cells): 18600 nM | IC50 (A549 cells): 18600 nM | IC50 (HT29 cells): 18600 nM

O=C(CCCSC[C@H](NC(=O)c1cccc2ccccc12)C(=O)NCc1ccccc1)NO [Example 37]
IC50 (MM96L melanoma cells; [7]): 6.3 ± 0.6 µM | Selectivity (MM96L melanoma cells; Table 5): 0.8 | IC50 [4, 8]: 5.3 ± 0.6 µM
